Source: patent publication US20250248960A1, “Methods for Providing Rapid Relief of Motor Fluctuations in a Parkinson's Disease Patient” (priority 2012, published 2025)

Tested on: Parkinson's disease patients
Test: Phase 2 study: plasma levodopa concentrations compared to UPDRS scores (off/on state)
Format: in vivo, human
Conditions: plasma levels vs UPDRS scores, FIG. 8
Description: The twenty four (24) patients treated in this study underwent serial evaluations of L-dopa plasma levels, motor response, and safety at each visit. The patients were administered the study drug in the OFF state with the serial evaluations starting prior to dosing and continuing for up to 180 minutes post-dose. Motor function was measured using a tapping test, the Unified Parkinson's Disease Rating Scale Part III (UPDRS III), and subjective evaluation of “meaningful” ON and OFF. Safety parameters monitored included pulmonary function, clinical laboratory data, EGCs, and vital signs (blood pressure, heart rate, and orthostatic blood pressure). This study was designed to measure the time, magnitude, and durability of pulmonary levodopa's effect on motor function, to evaluate the safety and tolerability of pulmonary levodopa in Parkinson's disease patients.
In FIG. 8, patient's plasma levodopa concentrations are being compared to UPDRS scores. UPDRS is a standard test for Parkinson's disease patients to test their response to drug treatment and their disease progression. […] As little as 200-400 ng/ml of levodopa plasma concentration makes the difference between being in the off state and being in the on state. […]

N[C@@H](Cc1ccc(O)c(O)c1)C(=O)O [L-Dopa, levodopa]
levodopa plasma concentration difference between being in the off state and being in the on state: 200 to 400 ng/mL
